The target in this test is T1, Nurr1 protein (Homo sapiens, UniProt P43354).
T1 construct: three kinds of plasmid DNAs, including a DNA comprising Nurr1-LBD and a DNA having β-galactosidase, were transfected into BE(2)C cells; expressed in transfected cells; host or cells: BE(2)C human neuroblastoma cells
Nature of the test: Nurr1 luciferase reporter assay in BE(2)C cells transfected with Nurr1-LBD. It is filed as cell-based. How it is done:
A gene comprising eight repeats of a nucleotide sequence (5′-CTCGGAGGACAGTACTCCG-3, SEQ ID NO: 1) to which GLA4 gene can bind was linked to the reporter gene luciferase to synthesize a vector. Then, three kinds of plasmid DNAs, including a DNA comprising Nurr1-LBD and a DNA having β-galactosidase, were transfected into BE(2)C cells, and after 6 hours, the cells were treated with 1-200 ppm of the Daphne genkwa extract. The treated cells were incubated in a 5% CO2 incubator at 37° C. for 20 hours, and then subjected to a luciferase assay (FIG. 1).
FIG. 1 is a graphic diagram showing the results of a luciferase assay conducted to examine the change in Nurr1 protein activity as a function of the concentration of the Daphne genkwa extract. As a control, 0.1% DMSO was used, and the increase in activity was expressed as folds of the activity of the control. […]
The effects of the Daphne genkwa extract fractions, obtained using various solvents in Example 2, on Nurr1 protein activity, were analyzed according to a method similar to the method described in Example 3. […]
According to a method similar to the method described in Example 3, the concentration dependences of the effects of genkwanine N and yuanhuacine on the activity of Nurr1 protein were analyzed, and the results of the analysis are shown in FIG. 5.
For orientation: In a reporter assay the amount or activity of a reporter protein is the signal.

T1 sequence (P43354 360-595 limits assumed): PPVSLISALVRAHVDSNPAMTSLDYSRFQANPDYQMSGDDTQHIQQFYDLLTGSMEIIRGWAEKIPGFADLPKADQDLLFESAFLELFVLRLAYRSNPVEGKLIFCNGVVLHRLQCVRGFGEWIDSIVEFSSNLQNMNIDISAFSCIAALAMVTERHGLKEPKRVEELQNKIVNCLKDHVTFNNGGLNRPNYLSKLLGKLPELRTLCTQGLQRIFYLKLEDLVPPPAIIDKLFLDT

As for `C=C(C)[C@]12C[C@@H](C)[C@@]34OC(c5ccccc5)(O[C@@H]1[C@@H]3[C@@H]1O[C@]1(CO)[C@@H](O)[C@@]1(O)[C@H]4C[C@H](C)[C@@H]1OC(=O)c1ccccc1)O2` [genkwanine N], the “increase of activity of Nurr1 protein” value (16 nM (corresponding to 0.01 ppm)) is on record as 60%.
Take `C=C(C)[C@@]12OC3(/C=C/C=C/CCCCC)O[C@@H]1[C@@H]1[C@@H]4O[C@]4(CO)[C@@H](O)[C@]4(O)C(=O)C(C)=C[C@H]4[C@@]1(O3)[C@H](C)[C@H]2OC(=O)c1ccccc1` [yuanhuacine]: under “15 nM (corresponding to 0.01 ppm)”, the “increase of activity of Nurr1 protein” value is recorded as 70%.

The values are drawn from patent publication US9034916B2, “Pharmaceutical composition for the prevention or treatment of a neurodegenerative disease, comprising a Daphne genkwa extract or a compound isolated therefrom” (Korea Research Institute of Bioscience and Biotechnology, priority 2011, dated 2015).
